Where two headings read alike, the source gives them in different places.
Columns and labels:
ovine COX-1 = molecular target: T1, ovine COX-1 (Ovis aries, UniProt P05979); assay: COX inhibitor assay (Cayman 700100), COX-1
T1 sequence (P05979 25-600): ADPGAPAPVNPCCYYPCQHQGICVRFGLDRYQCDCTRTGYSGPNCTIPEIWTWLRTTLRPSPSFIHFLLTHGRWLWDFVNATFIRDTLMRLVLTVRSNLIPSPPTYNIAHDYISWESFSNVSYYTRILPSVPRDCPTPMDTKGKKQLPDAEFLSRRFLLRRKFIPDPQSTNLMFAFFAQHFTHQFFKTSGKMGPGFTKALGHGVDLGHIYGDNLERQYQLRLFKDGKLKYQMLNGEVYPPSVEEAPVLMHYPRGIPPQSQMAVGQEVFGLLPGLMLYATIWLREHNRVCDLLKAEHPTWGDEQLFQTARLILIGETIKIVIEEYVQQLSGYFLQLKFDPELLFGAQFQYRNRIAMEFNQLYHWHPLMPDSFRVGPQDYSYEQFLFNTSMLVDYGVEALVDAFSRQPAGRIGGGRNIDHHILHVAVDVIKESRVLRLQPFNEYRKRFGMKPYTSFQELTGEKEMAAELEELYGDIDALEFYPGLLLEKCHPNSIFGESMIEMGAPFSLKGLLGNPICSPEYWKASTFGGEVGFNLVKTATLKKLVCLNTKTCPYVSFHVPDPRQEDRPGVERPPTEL
Method: (§1) Each compound was assayed in concentration range of 10^−9 M to 10^−3 M, in triplicate. PRISM5 software was used to calculate IC50 values.

recombinant human COX-2 = molecular target: T2, recombinant human COX-2 (Homo sapiens, UniProt P35354); assay: COX inhibitor assay (Cayman 700100), COX-2
T2 sequence (P35354 18-604): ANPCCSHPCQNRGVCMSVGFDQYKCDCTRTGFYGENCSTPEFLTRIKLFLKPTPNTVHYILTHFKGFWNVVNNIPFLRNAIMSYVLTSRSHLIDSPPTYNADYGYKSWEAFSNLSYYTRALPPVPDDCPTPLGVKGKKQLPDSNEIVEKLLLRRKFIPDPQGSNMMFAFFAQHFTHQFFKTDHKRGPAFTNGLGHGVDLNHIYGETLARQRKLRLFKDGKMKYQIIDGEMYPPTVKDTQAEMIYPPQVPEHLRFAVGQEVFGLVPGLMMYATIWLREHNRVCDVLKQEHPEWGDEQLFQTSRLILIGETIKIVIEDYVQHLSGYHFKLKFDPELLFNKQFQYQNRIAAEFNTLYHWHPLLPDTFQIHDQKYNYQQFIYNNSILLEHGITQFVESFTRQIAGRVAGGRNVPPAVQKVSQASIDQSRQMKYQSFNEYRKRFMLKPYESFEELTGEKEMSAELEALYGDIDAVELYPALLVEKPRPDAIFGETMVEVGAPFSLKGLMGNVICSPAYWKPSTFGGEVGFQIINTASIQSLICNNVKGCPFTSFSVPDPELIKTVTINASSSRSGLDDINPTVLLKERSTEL
Method: as §1

COX-2 in HCA-7 cells = molecular target: T3, COX-2 in HCA-7 cells (Homo sapiens, UniProt P35354); assay: Cellular COX-2 inhibitory activity (PGE2 ELISA) in HCA-7 cells; assay type: cell-based; conditions: mean of three determinations, read-out: Cell COX-2 IC50
T3 construct: endogenous in cells; host or cells: HCA-7
T3 sequence (P35354 18-604): T2 sequence (P35354 18-604)
Method: Based on the in vitro COX-2 inhibitory data, seventeen compounds (Table 2) were selected and further evaluated for their cellular COX-2 inhibitory activity in COX-2 expressing colorectal cancer cell line HCA-7. […]
HCA-7 cells (colorectal cancer cell line, COX-2 expression is confirmed with immunoblotting). The HCA-7 cells were cultured in T75 flasks using DMEM/F12 (1:1) medium supplemented with 10% (v/v) fetal bovine […]
were washed three times for 5 min with 1 ml PBS. Cells were negatively tested for mycoplasma contamination either by the vendor or in house. […]
vehicle (solvent) at concentration range of 10−9 M to 10−3 M. After 30 min incubation the reaction was stopped on ice and supernatants were taken and COX-2 mediated production of PGE2 was immediately determined […]
concentration is quantified by following manufacturer assay procedure. All experiments were done three times and ±s.e.m. were calculated.
The PRISM5 software was used to calculate IC50 values.

[1] = system: carrageenan-induced rat paw edema; assay: Carrageenan-induced rat paw edema assay; assay type: in vivo; conditions: for Change in behavior and toxic effects: oral doses of the edema assay; for ED50 anti-inflammatory activity: p.o.; for times more potent than celecoxib: versus celecoxib ED50 at 3 h
Method: In vivo anti-inflammatory activity was measured using a carrageenan-induced rat paw edema assay. In brief, three to five male Sprague–Dawley rats, 8–11-weeks-old, weighing 180–200 g (Charles-River Canada) were used in each group. […] A dose–response curve was constructed using GraphPad Prism 5.0 and ED50were calculated. […] In vivo anti-inflammatory assays were carried using a protocol approved by the Health Sciences Animal Welfare Committee, University of Alberta, Edmonton, Canada.

Stability in human serum = assay type: in vitro ADME; conditions: 37 °C, up to 30 h
Method: Stock solutions of compounds 5, 14, 18 and 21 (10 mM) were prepared in DMSO for molecular biology. A Solution of each compound (10 mM) was added to freshly thaw human serum (from human male AB plasma, USA origin, sterile-filtered, Sigma– Aldrich) at 37 °C; the final concentration of the compound was 100 µM. The resulting solution was incubated at 37 °C and at various time intervals (0 to 30 h) 200 µL reaction mixture samples was taken and added to 200 µL of acetonitrile containing 0.1% trifluoroacetic acid in order to deproteinize the proteins. Into each sample mixture, 10 μL of an internal standard solution (2 mM solution in methanol) was added. Sample mixture was sonicated, vortexed and then centrifuged for 15 min. at 2150 × g. The clear supernatant was transferred into the fresh tube for LCMS analysis, with a similar method described for the in situ click LC-MS studies. […]

Stability in rat serum = assay type: in vitro ADME; conditions: 37 °C, up to 30 h

Row | melting point [°C] | IC50 (ovine COX-1) [µM] | IC50 (recombinant human COX-2) [µM] | COX-2 SI (selectivity index) (recombinant human COX-2; (COX-1 IC50)/(COX-2 IC50)) | IC50 (COX-2 in HCA-7 cells) [µM] | Stability in human serum (Stability in human serum) | Stability in rat serum (Stability in rat serum) | SMILES | Change in behavior and toxic effects [1] | ED50 anti-inflammatory activity ([1]; 3 h time point) [mg/kg] | ED50 anti-inflammatory activity ([1]; 5 h time point) [mg/kg] | times more potent than celecoxib [1] [times] | COX-2 SI (selectivity index) (recombinant human COX-2)
1 | 146 to 148 | > 100 | 10 | >10 | – | – | – | Cc1cc(-n2cc(-c3ccccc3)nn2)n(-c2ccc(S(C)(=O)=O)cc2)n1 [Compound 16] | – | – | – | – | –
2 | – | > 100 | 26 | >3.84 | – | – | – | COc1ccc(-c2cn(-c3cc(C)nn3-c3ccc(S(C)(=O)=O)cc3)nn2)cc1 [Compound 19] | – | – | – | – | –
3 | – | > 100 | 2.7 | >37.0 | 0.1 | – | – | CS(=O)(=O)c1ccc(-n2nc(-c3ccccc3)cc2-n2cc(-c3ccc(N)cc3)nn2)cc1 [Compound 29] | – | – | – | – | –
4 | – | > 100 | 5.2 | >19.2 | 11 | – | – | Cc1cc(-n2cc(CN3CCCCC3)nn2)n(-c2ccc(S(C)(=O)=O)cc2)n1 [Compound 25] | – | – | – | – | –
5 | 129 to 131 | > 100 | 0.14 | >714.2 | 2 | – | – | Fc1ccc(-c2cn(-c3cc(-c4ccccc4)nn3-c3ccccc3)nn2)cc1 [Compound 9] | – | – | – | – | –
6 | – | 57.9 | 8.6 | 6.73 | 0.1 | – | – | Cc1cc(-n2cc(-c3ccc(N)cc3)nn2)n(-c2ccccc2)n1 [Compound 33] | – | – | – | – | –
7 | 209 to 211 | > 100 | 0.22 | >454.5 | 0.15 | – | – | Cc1cc(-n2cc(-c3ccc(C(F)(F)F)cc3)nn2)n(-c2ccc(S(C)(=O)=O)cc2)n1 [Compound 22] | – | – | – | – | –
8 | – | > 100 | 0.14 | >714.2 | 0.2 | – | – | CS(=O)(=O)c1ccc(-n2nc(-c3ccccc3)cc2-n2cc(-c3ccc(F)cc3)nn2)cc1 [Compound 28] | – | – | – | – | –
9 | – | > 100 | 15.2 | >6.5 | – | – | – | COc1ccc(-c2cn(-c3cc(-c4ccccc4)nn3-c3ccccc3)nn2)cc1 [Compound 10] | – | – | – | – | –
10 | – | – | – | – | – | no significant degradation | no significant degradation | CS(=O)(=O)c1ccc(-n2nc(-c3ccccc3)cc2N=[N+]=[N-])cc1 [Compound 27, 5-azido-1-(4-methanesulfonyl-phenyl)-3-phenyl-1H-pyrazole] | – | – | – | – | –
11 | – | 45.5 | 12 | 3.7 | 0.1 | – | – | Cc1cc(-n2cc(-c3ccc(F)cc3)nn2)n(-c2ccccc2)n1 [Compound 32] | – | – | – | – | –
12 | – | > 100 | 19 | >5.26 | – | – | – | Cc1ccc(-c2cn(-c3cc(C)nn3-c3ccc(S(C)(=O)=O)cc3)nn2)cc1 [Compound 20] | – | – | – | – | –
13 | – | > 100 | 0.9 | >111.1 | 3 | – | – | c1ccc(-c2cn(-c3cc(-c4ccccc4)nn3-c3ccccc3)nn2)cc1 [Compound 7] | – | – | – | – | –

More lines, now with the values behind:

Row | SMILES | melting point [°C] | IC50 (ovine COX-1) [µM] | IC50 (recombinant human COX-2) [µM] | COX-2 SI (selectivity index) (recombinant human COX-2; (COX-1 IC50)/(COX-2 IC50)) | IC50 (COX-2 in HCA-7 cells) [µM] | Stability in human serum (Stability in human serum) | Stability in rat serum (Stability in rat serum) | Change in behavior and toxic effects [1] | ED50 anti-inflammatory activity ([1]; 3 h time point) [mg/kg] | ED50 anti-inflammatory activity ([1]; 5 h time point) [mg/kg] | times more potent than celecoxib [1] [times] | COX-2 SI (selectivity index) (recombinant human COX-2)
14 | CCc1ccc(-c2cn(-c3cc(-c4ccccc4)nn3-c3ccccc3)nn2)cc1 [Compound 12] | 130 to 133 | > 100 | 18 | >5.5 | – | – | – | – | – | – | – | –
15 | Cc1ccc(-c2cn(-c3cc(-c4ccccc4)nn3-c3ccccc3)nn2)cc1 [Compound 11] | 125 to 127 | > 100 | 3.2 | >31.2 | 2 | – | – | – | – | – | – | –
16 | Clc1ccc(-c2cn(-c3cc(-c4ccccc4)nn3-c3ccccc3)nn2)cc1 [Compound 8] | 134 to 136 | > 100 | 0.16 | >625 | 4 | – | – | – | – | – | – | –
17 | Cc1cc(-n2cc(CC(C)C)nn2)n(-c2ccc(S(C)(=O)=O)cc2)n1 [Compound 23] | 150 to 153 | > 100 | 6.2 | >16.1 | – | – | – | – | – | – | – | –
18 | Cc1cc(-n2cc(-c3ccc(F)cc3)nn2)n(-c2ccc(S(C)(=O)=O)cc2)n1 [Compound 18, 4-(4-fluorophenyl)-1-[2-(4-methanesulfonyl-phenyl)-5-methyl-2H-pyrazol-3-yl]-1H [1,2,3]triazole] | – | > 100 | 0.09 | – | 0.06 | – | – | No unusual change in behavior and toxic effects | 0.44 | 0.99 | > 25 | >1,111.1
19 | Cc1cc(-n2cc(-c3ccc(N)cc3)nn2)n(-c2ccc(S(C)(=O)=O)cc2)n1 [Compound 21, 4-{1-[2-(4-methanesulfonyl-phenyl)-5-methyl-2H-pyrazol-3-yl]-1H-[1,2,3]triazol-4-yl}-phenylamine] | – | > 100 | 0.05 | – | 0.08 | – | – | No unusual change in behavior and toxic effects | 0.12 | 0.34 | > 25 | >2,000
20 | [N-]=[N+]=Nc1cc(-c2ccccc2)nn1-c1ccccc1 [Compound 5, 5-azido-1,3-diphenyl-1H-pyrazole] | – | > 100 | 18.1 | >5.5 | > 1 | no significant degradation | no significant degradation | – | – | – | – | –
21 | Cc1cc(-n2cc(-c3ccc(Cl)cc3)nn2)n(-c2ccc(S(C)(=O)=O)cc2)n1 [Compound 17] | 145 to 148 | > 100 | 1.1 | >90.9 | 1 | – | – | – | – | – | – | –
22 | Cc1cc(N=[N+]=[N-])n(-c2ccccc2)n1 [Compound 31, 5-azido-3-methyl-1-phenyl-1H-pyrazole] | 123 to 125 | – | – | – | – | no significant degradation | no significant degradation | – | – | – | – | –
23 | Cc1cc(-n2cc(CN3CCOCC3)nn2)n(-c2ccc(S(C)(=O)=O)cc2)n1 [Compound 24] | 172 to 174 | > 100 | 0.82 | >121.9 | 0.7 | – | – | – | – | – | – | –

— article PMC5431875, “In situ click chemistry generation of cyclooxygenase-2 inhibitors” (Nature Communications, 2017)
